According to US20260152502A1, “PIPERIDINYL-METHYL-PURINE AMINE SALTS, CRYSTALLINE FORMS, AND THEIR USE IN TREATING MEDICAL DISEASES AND CONDITIONS” (K36 THERAPEUTICS, INC., priority 2022, published 2026):

Columns and labels:
Format in all cases: physicochemical
[1] = accelerated stability study (75% relative humidity, 40° C., one week); conditions: one week at 75% relative humidity
Method: An accelerated stability study was conducted on the crystalline solid. Approximately 10 mg of crystalline solid was placed into a 4 mL vial, and the vial was covered with a Kimwipe. The vial was stored for one week inside a stability chamber producing a relative humidity of 75% at 40° C.

[2] = hygroscicity by dynamic vapor sorption; conditions: transitioned from 5% to 95% relative humidity
Method: Dynamic vapor sorption was performed using a Q5000SA. The sample (5-15 mg) was loaded into a metallic quartz sample pan, suspended from a microbalance, and exposed to a humidified stream of nitrogen gas. Weight changes were relative to a matching empty reference pan opposite the sample, suspended from the microbalance. The sample was held for a minimum of 10 min at each humidity level and only progressed to the next humidity level if there was <0.002% change in weight between measurements (interval: 5 s) or 45 min had elapsed (for 5-65% RH) or 2 hours had elapsed (for 80 and 95% RH). The following program was used: • 1. Equilibration at 50% RH • 2. 50% to 5% (50%, 35%, 20%, and 5%) • 3. 5% to 95% (5%, 20%, 35%, 50%, 65%, 80%, and 95%) • 4. 95% to 5% (95%, 80%, 65%, 50%, 35%, 20%, and 5%) • 5. 5% to 50% (5%, 20%, 35%, and 50%).
The crystalline solid was analyzed for hygroscopicity.

[3] = water solubility of the crystalline solid; conditions: pH 7.0 (phosphate buffer), 37° C., after 30 minutes

| Substance | change of crystalline form by XRPD after the stability study [1] | HPLC purity after the stability study ([1]; 99.59 area percent before the study) | increase in weight by dynamic vapor sorption [2] | water solubility (mg/mL of the free base (S)-1-((R)-3-amino-1-(...)piperidin-3-yl)-2,2-difluoroethan-1-ol) [3] |
| --- | --- | --- | --- | --- |
| Maleic Acid Salt of (S)-1-((R)-3-amino-1-(4-((6-amino-9H-purin-9-yl)methyl)-6-(2,5-difluoro-4-methoxyphenyl)pyridin-3-yl)piperidin-3-yl)-2,2-difluoroethan-1-ol [Example 1] | no change of the crystalline form | 99.56 area percent | 0.507% |  |
| p-Toluenesulfonic Acid Salt of (S)-1-((R)-3-amino-1-(4-((6-amino-9H-purin-9-yl)methyl)-6-(2,5-difluoro-4-methoxyphenyl)pyridin-3-yl)piperidin-3-yl)-2,2-difluoroethan-1-ol [Example 3] |  |  |  | 1.61 mg/mL |
